From patent publication US20030156977A1, “Method for rapidly sterilizing a load” (priority 2000, published 2003)
Where “and” joins values, the source holds several entries; their conditions need not be identical. Equal entries are not always repeated. Where two headings read alike, the source gives them in different places.

Key:
[1] = tested on: Bacillus stearothermophilus spores
Description: The sterilization process was run under the following conditions:
The trays containing the inoculated coupons and the various loads were wrapped with sterilization wrap and sealed with sterilization tape.
The effectiveness of the sterilization process was determined by placing stainless steel coupons inoculated with >10^6 Bacillus stearothermophilus spores as biological indicators (BI's) into 3 mm×400 mm stainless steel lumens. The lumens were placed into double-wrapped sterilizer trays with the loads of medical instruments to be sterilized. At the end of the cycle, the BIs were recovered from the lumens, placed into tubes of TSB (Trypticase soy broth) medium and incubated at 55-60° C. for 14 days. The biological activity was then determined.
(§1) The pressure inside the chamber was also monitored as a function of time. After the completion of the sterilization cycle, the chamber was vented, the equipment was removed, and the inoculated coupons were tested for growth in the medium. […] The sterilization results and the summary of the various methods of analyzing the hydrogen concentration data are shown in Table 2 below.

[2] = for -Initial slope, k: 8.6 mg/L H2O2 injected, 6 trays, 20 min pre-plasma, first 50 seconds after maximum concentration
Description: as §1
The data were analyzed in various ways to determine whether a method could be found to quickly determine the suitability of the load for sterilization.
FIGS. 5-8 show graphs of ln(c/c0) versus time for a validation load (FIG. 5), a heavy load (FIG. 6), a heavy load with a new towel (FIG. 7), and a heavy load with an old towel (FIG. 8).
The initial slopes in Table 2 are recorded as the negative of the initial slopes for simplicity in recording the data.
The final concentration is measured at the end of the diffusion step 50, prior to evacuating and generating the post-injection plasma.

[3] = Group 7 validation loads with one towel
[4] = Group 8 validation loads with two towels

Compound: OO [hydrogen peroxide]
- Fraction Positive BIs ([1]; Group 1: validation load, 8.6 or 9.3 mg/L H2O2 injected, 6 trays, 20 min pre-plasma): 0/10
- BI's of all runs of the group ([1]; Group 1 validation loads): negative
- Fraction Positive BIs ([1]; Group 2: heavy load, 1 filter, 8.6 mg/L H2O2 injected, 6 trays, 20 min pre-plasma): 0/10
- Fraction Positive BIs ([1]; Group 2: heavy load, 2 filters, 8.6 mg/L H2O2 injected, 6 trays, 20 min pre-plasma): 0/10
- Fraction Positive BIs ([1]; Group 2: heavy load, brass, 8.6 mg/L H2O2 injected, 6 trays, 20 min pre-plasma): 0/10
- Fraction Positive BIs ([1]; Group 2: heavy load, mat, 8.6 mg/L H2O2 injected, 6 trays, 20 min pre-plasma): 0/10
- Fraction Positive BIs ([1]; Group 2: heavy load, 8.6 mg/L H2O2 injected, 6 trays, 20 min pre-plasma): 1/10
- Positive BI's, total of all runs of the group ([1]; Group 2 heavy loads): 1 of the 60
- Fraction Positive BIs ([1]; Group 3: heavy load, 1 new towel, 8.6 mg/L H2O2 injected, 6 trays, 20 min pre-plasma): 6/10
- Fraction Positive BIs ([1]; Group 3: heavy load, 2 new towels, 8.6 mg/L H2O2 injected, 6 trays, 20 min pre-plasma): 5/10
- Fraction Positive BIs ([1]; Group 3: heavy load, 6/8 towel, 8.6 mg/L H2O2 injected, 6 trays, 20 min pre-plasma): 3/10
- Positive BI's, total of all runs of the group ([1]; Group 3 heavy load/new towel runs): 14/30
- Fraction Positive BIs ([1]; Group 4: heavy load, 1 old towel, 8.6 mg/L H2O2 injected, 6 trays, 20 min pre-plasma): 10/10
- Positive BI's, total of all runs of the group ([1]; Group 4 heavy load/old towel runs): 20 of the 20
- Fraction Positive BIs ([1]; Group 5: validation load, initial load temperature 5° C., 9.3 mg/L H2O2 injected, 4 trays, 15 min pre-plasma): 0/12
- BI's of all runs of the group ([1]; Group 5 cold validation loads, 15 minutes of pre-plasma, 72 BI's): negative
- Fraction Positive BIs ([1]; Group 6: validation load, initial load temperature 5° C., 9.3 mg/L H2O2 injected, 4 trays, no pre-plasma): 0/12
- BI's of all runs of the group ([1]; Group 6 cold condensing validation loads, no pre-plasma): negative
- Positive BI's, total of all runs of the group [1, 3]: 4/72
- Positive BI's, total of all runs of the group [1, 4]: 3/73
- Initial slope, average ([2]; Group 1 runs with the validation loads): 0.00983 s⁻¹
- -Initial slope, k ([2]; Group 2: heavy load, 1 filter): 0.016 s⁻¹
- -Initial slope, k ([2]; Group 2: heavy load, 2 filters): 0.017 s⁻¹
- -Initial slope, k ([2]; Group 2: heavy load, brass): 0.012 s⁻¹
- -Initial slope, k ([2]; Group 2: heavy load, mat): 0.013 s⁻¹
- -Initial slope, k ([2]; Group 2: heavy load): 0.016 s⁻¹
- Initial slope, average ([2]; Group 2 runs with the heavy loads): 0.0145 s⁻¹
- Initial slopes, range over runs ([2]; Group 2 runs with the heavy loads (all variants)): 0.012 to 0.017 s⁻¹
- -Initial slope, k ([2]; Group 3: heavy load, 1 new towel): 0.026 s⁻¹
- -Initial slope, k ([2]; Group 3: heavy load, 2 new towels): 0.028 s⁻¹
- -Initial slope, k ([2]; Group 3: heavy load, 6/8 towel): 0.019 s⁻¹
- Initial slope, average ([2]; Group 3 runs with the heavy loads and new towel): 0.0243 s⁻¹
- Initial slopes, range over runs ([2]; Group 3 runs with the heavy loads and new towel (all variants)): 0.019 to 0.028 s⁻¹
- -Initial slope, k ([2]; Group 4: heavy load, 1 old towel): 0.039 s⁻¹ and 0.025 s⁻¹
- Initial slope, average ([2]; Group 4 runs with the heavy loads and old towel): 0.032 s⁻¹
- Initial slope, average ([2]; Group 5 runs with the cold validation loads and 15 minutes of pre-plasma): 0.0095 s⁻¹
- Initial slope, average ([2]; Group 6 runs with the cold condensing validation loads with no pre-plasma): 0.0164 s⁻¹
- Initial slope, average [2, 3]: 0.0195 s⁻¹
- Initial slope, average [2, 4]: 0.028 s⁻¹
- Initial slope by type of load ([2]; cold, condensing load): 0.016 s⁻¹
- Initial slope by type of load ([2]; heavy load): 0.015 s⁻¹
- Initial slope by type of load ([2]; heavy load with towel): > 0.020 s⁻¹
- Initial slope by type of load ([2]; validation load): 0.010 s⁻¹
